Assay results from article PMC5548886 (Cancer Medicine, 2017).
Read-outs that look alike come from different tables or passages of the source.

What was measured:
BRAF V600E = details: read-out: EC50 for BRAF V600E; preclinical data; cited from earlier work
Ki-67 = system: Ki-67
Method: Pharmacodynamic markers were examined using peripheral blood samples, tumor and nevi biopsies (when available) and tumor imaging. BRAF mutation status was determined by Sanger sequencing. Pharmacodynamic markers analyzed, in available tumor/nevus samples obtained before treatment or archival tissue and during treatment on cycle 1, day 8 or day 15, including cytoplasmic p‐MEK, p‐ERK, BIM, c‐KIT, p‐AKT473, pS6 and PTEN, and nuclear p‐ERK, Ki‐67, PARP, cyclin D1, MITF, p27, and p53. Biomarker expression was determined by calculating the percentage of change in the H‐score (14) between on‐treatment and fresh/archival pretreatment specimens. Blood levels of VEGFR‐2 and were assessed before and at multiple time points while on treatment using enzyme‐linked immunosorbent assay (ELISA). […] Changes in standard uptake value (SUV) were determined by a blinded, independent central imaging review panel. Complete metabolic response (CMR) was complete resolution of tumor FDG‐PET uptake so SUV is the same as background. Partial metabolic response (PMR) decrease in sum of the tumor SUV of ≥25% from the baseline scan. Progressive metabolic disease (PMD) was defined as an increase in tumor SUV of ≥25% from the baseline scan, or the appearance of new FDG‐PET uptake in metastatic lesions. Stable metabolic disease (SMD) was defined as a change in tumor SUV between the PMR and PMD criteria.

[1] = system: patients with locally advanced or metastatic melanoma; experiment: Phase I dose-escalation: safety, adverse events (NCI CTCAE v3.0), DLT and MTD; assay type: in vivo
Text: This study was an open‐label, multicenter, nonrandomized, phase I/II, dose‐escalation study of orally administered RAF265. […] The study was comprised of two phases: A dose escalation phase and an expansion phase at the MTD/RP2D. The dose‐escalation phase was guided by pharmacokinetics (PK), pharmacodynamics (PD) and safety. […] In the expansion phase (cohort 7.1) the PK run in was omitted and patients received a loading dose in 3 divided doses followed by lower daily dose beginning on Cycle 1, Day 2. The cycle length was 28 days in all cohorts. Here, we report the dose escalation and expansion arm investigating a continuous treatment regimen.
Medical history and demographics were collected at screening. The safety of study medication was evaluated on the basis of rate, type, severity graded in accordance with NCI CTCAE version 3.0. Safety assessments consisted of collecting all AEs, serious adverse events (SAEs) with their severity and relationship with study drug, and pregnancies. They included the regular monitoring of hematology, blood chemistry and urine performed at the study center/central laboratory and regular assessments of vital signs, physical condition, body weight, performance status, and cardiac data (i.e. electrocardiogram (ECG)/echocardiogram (ECHO)). Abnormalities in clinical laboratory tests that were considered clinically significant by the Investigator were recorded on the AE CRF. Dose‐limiting toxicities (DLTs) were defined for various organ systems and other clinically relevant adverse effects (Table S1). The DLT window was the first cycle while AEs were captured for the entire course of treatment. Evaluation of tumor response was conducted at Baseline, and at the end of every 8 weeks of treatment. Response was assessed using the Response Evaluation Criteria in Solid Tumors (RECIST) 1.0. A complete or partial response (CR or PR) was confirmed at least 28 days after the first assessment that documented response and every two cycles thereafter until disease progression, initiation of confounding anticancer therapy, death, loss to follow‐up, withdrawal of consent, or study termination. All patients discontinuing from the study for progressive disease were to have their disease progression documented by radiologic evaluation.
The MTD was defined as the dose level with 16–33.3% probability of a DLT. […] Descriptive statistic were used for the analysis of PK, biomarker analysis and tumor response data.

Cn1c(Nc2ccc(C(F)(F)F)cc2)nc2cc(Oc3ccnc(-c4ncc(C(F)(F)F)[nH]4)c3)ccc21 [RAF265]
Ki67 % change vs pretreatment, Mean (SD) (Ki-67; All patients, n 23): -13.46 (50) %
Ki67 % change vs pretreatment, Median (Ki-67; All patients, n 23): -11.1%
Ki67 % change vs pretreatment, Mean (SD) (Ki-67; DL 5, n 2): 0%
Ki67 % change vs pretreatment, Median (Ki-67; DL 5, n 2): 0%
Ki67 decrease (Ki-67; DL 6): up to 51.8%
Ki67 % change vs pretreatment, Mean (SD) (Ki-67; DL 6, n 6): -47.93 (40.8) %
Ki67 % change vs pretreatment, Median (Ki-67; DL 6, n 6): -51.8%
Ki67 % change vs pretreatment, Mean (SD) (Ki-67; DLs 1 - 4, n 11): +0.21 (59) %
Ki67 % change vs pretreatment, Median (Ki-67; DLs 1 - 4, n 11): -11.1%
Ki67 % change vs pretreatment, Mean (SD) (Ki-67; DLs 7 and 7.1, n 4): -6.08 (20) %
Ki67 % change vs pretreatment, Median (Ki-67; DLs 7 and 7.1, n 4): -2.6%
deaths within 28 days of last administration of the study drug ([1]; 5 deaths, none deemed treatment related): 6.5%
AEs requiring dose adjustment or interruption, patients ([1]; human, in vivo): 39%
Abdominal pain (treatment-emergent grade 3/4) ([1]; human, in vivo): 1 (2.4%) n (%)
Angina unstable (treatment-emergent grade 3/4) ([1]; human, in vivo): 1 (2.4%) n (%)
Ataxia (treatment-emergent grade 3/4) ([1]; human, in vivo): 1 (2.4%) n (%)
Basal cell carcinoma (treatment-emergent grade 3/4) ([1]; human, in vivo): 1 (2.4%) n (%)
Blood lactic acid increased (treatment-emergent grade 3/4) ([1]; human, in vivo): 1 (2.4%) n (%)
Cutaneous lupus erythematosus (treatment-emergent grade 3/4) ([1]; human, in vivo): 1 (2.4%) n (%)
Decreased appetite (treatment-emergent grade 3/4) ([1]; human, in vivo): 2 (4.8%) n (%)
Diarrhea (treatment-emergent grade 3/4) ([1]; human, in vivo): 4 (9.8%) n (%)
Dyspnea (treatment-emergent grade 3/4) ([1]; human, in vivo): 1 (2.4%) n (%)
Fatigue (treatment-emergent grade 3/4) ([1]; human, in vivo): 6 (14.4%) n (%)
Hematological (treatment-emergent grade 3/4) ([1]; human, in vivo): 12 (29.2%) n (%)
Hypertension (treatment-emergent grade 3/4) ([1]; human, in vivo): 4 (9.8%) n (%)
Hypophosphatemia (treatment-emergent grade 3/4) ([1]; human, in vivo): 1 (2.4%) n (%)
Lipase increased (treatment-emergent grade 3/4) ([1]; human, in vivo): 2 (4.8%) n (%)
Neutropenia (treatment-emergent grade 3/4) ([1]; human, in vivo): 4 (9.8%) n (%)
Pancytopenia (treatment-emergent grade 3/4) ([1]; human, in vivo): 1 (2.4%) n (%)
Pulmonary embolism (treatment-emergent grade 3/4) ([1]; human, in vivo): 2 (4.8%) n (%)
SAE constipation ([1]; human, in vivo): 2.6%
SAE dehydration ([1]; human, in vivo): 5.2%
SAE pulmonary embolism ([1]; human, in vivo): 6.5%
SAE retinopathy ([1]; human, in vivo): 2.6%
SAE thrombocytopenia ([1]; human, in vivo): 3.9%
Squamous cell carcinoma (treatment-emergent grade 3/4) ([1]; human, in vivo): 2 (4.8%) n (%)
Thrombocytopenia (treatment-emergent grade 3/4) ([1]; human, in vivo): 7 (17.1%) n (%)
Total (n), treatment-emergent grade 3/4 events ([1]; human, in vivo): 41 (53.2%) n (%)
Vitreous floaters (treatment-emergent grade 3/4) ([1]; human, in vivo): 2 (4.8%) n (%)
Weight loss (treatment-emergent grade 3/4) ([1]; human, in vivo): 1 (2.4%) n (%)
decreased appetite requiring dose adjustment or interruption ([1]; human, in vivo): 5.2%
development of hypertension, patients ([1]; human, in vivo): 17%
diarrhea requiring dose adjustment or interruption ([1]; human, in vivo): 6.5%
fatigue requiring dose adjustment or interruption ([1]; human, in vivo): 7.8%
hypertension requiring dose adjustment or interruption ([1]; human, in vivo): 5.2%
nausea requiring dose adjustment or interruption ([1]; human, in vivo): 5.2%
overall rate of grade 3 and 4 toxicities ([1]; human, in vivo): 53.2%
photopsia requiring dose adjustment or interruption ([1]; human, in vivo): 5.2%
serious adverse events (SAEs), patients ([1]; human, in vivo): 37.7%
thrombocytopenia requiring dose adjustment or interruption ([1]; human, in vivo): 3.9%
vitreous floaters requiring dose adjustment or interruption ([1]; human, in vivo): 5.2%
vitreous floaters, treatment-related adverse effect, patients ([1]; human, in vivo): 27%
patients with dose-limiting toxicities ([1]; human, in vivo, 28 days): 6 patients
maximum tolerated dose (MTD) ([1]; once daily given continuously (dose level 6)): 48 mg
